Laboratory results published in ChEMBL document CHEMBL1132572 (J Med Chem, 1999).

Key:
MT2 = assay: Lethal dose (LD5) concentration inhibiting growth of MT-2 cells by 5%; type: toxicity, cell-based; conditions: human
[1] = test system: Human immunodeficiency virus 1; assay: Concentration that inhibits Human Immunodeficiency Virus Type 1 (HIV-1)-induced death of MT-2 cells; type: functional, MT2; conditions: read-out: ED50 (the source's name)
[2] = target: Human immunodeficiency virus type 1 integrase (Human immunodeficiency virus 1, UniProt Q7ZJM1)
Description: Inhibitory activity against Human Immunodeficiency Virus Type 1 integrase (HIV-1 IN) in the disintegration assay.

[3] = test system: Human immunodeficiency virus 1; conditions: read-out: ED50
[4] = test system: Human immunodeficiency virus 1; conditions: read-out: ED50; remark: listed apart in the source
[5] = test system: Human immunodeficiency virus 1; assay: microbe, parasite or virus in culture; conditions: Human immunodeficiency virus 1, read-out: ED50
[6] = Human immunodeficiency virus 1, MT2

| SMILES | LD5 (MT2) | EC50 [1, 6] | IC50 [2] | EC50 [1] | EC50 [3] | EC50 [4] | EC50 [5] |
| --- | --- | --- | --- | --- | --- | --- | --- |
| O=C(O)/C=C/c1ccc(O)c(O)c1 [CAFFEIC ACID] | 1389 µM | > 1390 µM | – | – | – | – | – |
| COc1ccc(/C=C/C(=O)OC(C(=O)O)C(OC(=O)/C=C/c2ccc(OC)c(OC)c2)C(=O)O)cc1OC (stereo not drawn) | 89 µM | > 178 µM | – | – | – | – | – |
| O=C(/C=C/c1ccc(O)c(O)c1)OCC(OC(=O)/C=C/c1ccc(O)c(O)c1)C(=O)O (stereo not drawn) | 145 µM | 2.3 µM | 0.52 µM | – | – | – | – |
| O=C(/C=C\c1ccc(O)c(O)c1)OC1CCC(OC(=O)/C=C\c2ccc(O)c(O)c2)CC1 (stereo not drawn) | 20.5 µM | > 45 µM | 1.01 µM | – | – | – | – |
| O=C(OC(C(=O)O)C(OC(=O)c1cc(O)ccc1O)C(=O)O)c1cc(O)ccc1O (stereo not drawn) | > 238 µM | > 238 µM | – | – | – | – | – |
| O=C(/C=C/c1ccc(O)c(O)c1)O[C@H](C(=O)O)[C@H](OC(=O)/C=C/c1ccc(O)c(O)c1)C(=O)O [CHICORIC ACID] | 115 µM | – | – | – | – | – | – |
| O=C(/C=C/c1ccc(O)c(O)c1)OC1C[C@](O)(C(=O)O)C[C@@H](O)[C@H]1OC(=O)/C=C/c1ccc(O)c(O)c1 (stereo partly drawn) | 145 µM | 4 µM | 0.6 µM | – | – | – | – |
| O=C(/C=C/c1ccc(O)c(O)c1)OCCOC(=O)/C=C/c1ccc(O)c(O)c1 | 194 µM | > 388 µM | > 10 µM | – | – | – | – |
| O=C(/C=C/c1ccc(O)c(O)c1)OC1CCC(OC(=O)/C=C/c2ccc(O)c(O)c2)CC1 (stereo not drawn) | 170 µM | > 341 µM | 1.03 µM | – | – | – | – |
| O=C(/C=C/c1ccc(O)c(O)c1)O[C@@H]1C[C@@](O)(C(=O)O)CC(O)[C@@H]1OC(=O)/C=C/c1ccc(O)c(O)c1 (stereo partly drawn) | 116 µM | 12 µM | 1.4 µM | – | – | – | – |
| O=C(/C=C/c1ccc(O)cc1)OC(C(=O)O)C(OC(=O)/C=C/c1ccc(O)cc1)C(=O)O (stereo not drawn) | 114 µM | > 227 µM | – | – | – | – | – |
| O=C(OC(C(=O)O)C(OC(=O)c1cccc(O)c1O)C(=O)O)c1cccc(O)c1O (stereo not drawn) | 19 µM | > 38 µM | 1.07 µM | – | – | – | – |
| O=C(OC(C(=O)O)C(OC(=O)c1cc(O)c(O)c(O)c1)C(=O)O)c1cc(O)c(O)c(O)c1 (stereo not drawn) | 2.7 µM | – | 0.97 µM | 0.66 µM | 0.29 µM | 31.2 µM | – |
| O=C(CCc1ccc(O)c(O)c1)OC(C(=O)O)C(OC(=O)CCc1ccc(O)c(O)c1)C(=O)O (stereo not drawn) | > 263 µM | – | 2.38 µM | 8.4 µM | 7.8 µM | 31.2 µM | – |
| O=C(/C=C\c1ccc(O)c(O)c1)OC1CCCC(OC(=O)/C=C\c2ccc(O)c(O)c2)C1 (stereo not drawn) | 36.4 µM | > 68.2 µM | 1.63 µM | – | – | – | – |
| O=C(/C=C/c1ccc(O)c(O)c1)OC1CCCCC1OC(=O)/C=C/c1ccc(O)c(O)c1 (stereo not drawn) | 63.6 µM | > 136 µM | > 10 µM | – | – | – | – |
| O=C(/C=C\c1ccc(O)c(O)c1)OC1CCCCC1OC(=O)/C=C\c1ccc(O)c(O)c1 (stereo not drawn) | 22.7 µM | > 90.9 µM | 8.36 µM | – | – | – | – |

| SMILES | LD5 (MT2) | EC50 [1, 6] | IC50 [2] | EC50 [1] | EC50 [3] | EC50 [4] | EC50 [5] |
| --- | --- | --- | --- | --- | --- | --- | --- |
| O=C(OC(C(=O)O)C(OC(=O)c1ccc(F)c(F)c1)C(=O)O)c1ccc(F)c(F)c1 (stereo not drawn) | 28.9 µM | > 59.2 µM | – | – | – | – | – |
| O=C(/C=C/c1ccc(O)c(O)c1)OCCCOC(=O)/C=C/c1ccc(O)c(O)c1 | 117.5 µM | > 350 µM | > 10 µM | – | – | – | – |
| O=C(/C=C/c1ccc(O)c(O)c1)OC1CCCC(OC(=O)/C=C/c2ccc(O)c(O)c2)C1 (stereo not drawn) | 9.1 µM | > 34.1 µM | 1.8 µM | – | – | – | – |
| O=C(/C=C/c1ccc(O)c(O)c1)O[C@@H]1C[C@](O)(C(=O)O)C[C@@H](OC(=O)/C=C/c2ccc(O)c(O)c2)[C@H]1O | 290 µM | 2 µM | 1.3 µM | – | – | – | – |
| O=C(OC(C(=O)O)C(OC(=O)c1cc(O)cc(O)c1)C(=O)O)c1cc(O)cc(O)c1 (stereo not drawn) | > 119 µM | > 119 µM | – | – | – | – | – |
| O=C(/C=C/c1ccc(O)c(O)c1)OC(C(=O)O)C(OC(=O)/C=C/c1ccc(O)c(O)c1)C(=O)O (stereo in doubt; 1 (L)) | 264 µM | – | – | – | – | – | – |
| O=C(O)C(O)C(O)C(=O)O (stereo not drawn) | > 1000 µM | > 1000 µM | – | – | – | – | – |
| O=C(OC(C(=O)O)C(OC(=O)c1ccc(O)c(O)c1)C(=O)O)c1ccc(O)c(O)c1 (stereo not drawn) | 90 µM | – | 0.43 µM | 0.95 µM | 0.82 µM | – | > 52.5 µM |
| O=C(/C=C/c1ccccc1)OC(C(=O)O)C(OC(=O)/C=C/c1ccccc1)C(=O)O (stereo not drawn) | > 245 µM | – | – | – | – | – | – |
| O=C(/C=C/c1ccc(O)c(O)c1)Oc1cc(OC(=O)/C=C/c2ccc(O)c(O)c2)cc(C(=O)O)c1 | 100 µM | > 75 µM | 6.9 µM | – | – | – | – |
| O=C(Cc1ccc(O)c(O)c1)OC(C(=O)O)C(OC(=O)Cc1ccc(O)c(O)c1)C(=O)O (stereo not drawn) | 70 µM | – | 0.88 µM | 35 µM | 15.6 µM | – | > 62.5 µM |
| O=C(/C=C/c1ccc(O)c(O)c1)O[C@@H]1CC(OC(=O)/C=C/c2ccc(O)c(O)c2)(C(=O)O)C[C@@H](O)C1O (single isomer, unassigned) [CYNARIN] | 145 µM | 4 µM | 1.6 µM | – | – | – | – |
| O=C(/C=C/c1ccc(O)c(O)c1)OC(C(=O)OC(c1ccccc1)c1ccccc1)C(OC(=O)/C=C/c1ccc(O)c(O)c1)C(=O)OC(c1ccccc1)c1ccccc1 (stereo not drawn) | 16.1 µM | > 37.2 µM | – | – | – | – | – |
| O=C(O)[C@]1(O)C[C@@H](O)[C@@H](O)[C@H](O)C1 [QUINIC ACID] | 907 µM | > 1820 µM | – | – | – | – | – |
| O=C(/C=C/c1cccc(O)c1)OC(C(=O)O)C(OC(=O)/C=C/c1cccc(O)c1)C(=O)O (stereo not drawn) | 566 µM | > 283 µM | – | – | – | – | – |
| O=C(/C=C/c1ccc(O)c(O)c1)OCCCCOC(=O)/C=C/c1ccc(O)c(O)c1 | 121 µM | > 242 µM | > 10 µM | – | – | – | – |
| O=C(/C=C/c1ccc(O)c(O)c1)O[C@@H]1C[C@](O)(C(=O)O)C[C@@H](O)[C@H]1O [CHLOROGENIC ACID] | 249 µM | > 497 µM | – | – | – | – | – |
